Measured values taken from US5597823A, “Tricyclic substituted hexahydrobenz [e]isoindole alpha-1 adrenergic antagonists” (priority 1995, dated 1997).
Structures can show the parent of a compound that is named as a salt.

Biological target: T1, α-1A adrenoceptor (dog prostate) (Canis lupus, UniProt A0A8I3NK63)
T1 sequence (A0A8I3NK63 1-466): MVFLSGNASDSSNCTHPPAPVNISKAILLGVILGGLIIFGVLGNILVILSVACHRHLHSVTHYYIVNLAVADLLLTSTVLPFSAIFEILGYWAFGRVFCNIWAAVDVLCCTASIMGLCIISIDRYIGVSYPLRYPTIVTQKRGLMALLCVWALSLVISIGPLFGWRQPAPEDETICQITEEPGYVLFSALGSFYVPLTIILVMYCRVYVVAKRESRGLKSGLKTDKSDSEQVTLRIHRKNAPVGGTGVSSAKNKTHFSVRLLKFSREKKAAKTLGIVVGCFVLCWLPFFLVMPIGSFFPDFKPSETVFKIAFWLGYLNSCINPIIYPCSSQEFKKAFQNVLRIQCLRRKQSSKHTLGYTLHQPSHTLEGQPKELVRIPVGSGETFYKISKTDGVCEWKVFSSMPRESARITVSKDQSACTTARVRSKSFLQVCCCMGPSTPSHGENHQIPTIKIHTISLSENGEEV
Assay: Functional antagonism: phenylephrine (PE)-induced contraction of canine prostate strips
Type: cell-based
Conditions: Table 2b, vs phenylephrine, Schild plot
Description: Functional assays indicative of pharmacologically defined α-1 adrenoceptors were used to further characterize compounds. Inhibition of phenylephrine (PE)-induced contraction of canine prostate smooth muscle can be correlated with α-1A adrenoceptor activation. […] For each of these models, agonist dose response curves were repeated against increasing concentrations of test agent to derive a Schild plot [log ([…]) against log (molarity of test agent)] to determine the pA2.
Canine prostate strips were used in vitro as previously described (Hieble, J. P., Boyce, A. J. and Caine, M., Fed. Proc., 45:2609-2614 (1986)), to determine antagonist potencies against phenylephrine-induced contractions.

SMILES | pA2 Dog Prostate [α-1A] | pA2 Dog Prostate [α-1A] (hydrochloride)
CCOc1cccc2c1CC[C@H]1CN(CCn3c(=O)[nH]c4c(sc5ncccc54)c3=O)C[C@@H]21 [Example 109, hydrochloride] | 8.00 | 
COc1cccc2c1CC[C@H]1CN(CCn3c(=O)[nH]c4c(sc5cccnc54)c3=O)C[C@@H]21 [Example 37, dihydrochloride] | 9.15 | 
COc1cccc2c1CC[C@H]1CN(CCn3c(=O)[nH]c4c(sc5c(Cl)ccnc54)c3=O)C[C@@H]21 [Example 63, 3-[2-((3aR,9bR)-cis-6-Methoxy-2,3,3a,4,5,9b-hexahydro-[1H]-benz[e]isoindol-1-yl)ethyl]-6-chloro-pyrido[2',3':4,5]thieno[3,2-d]pyrimidine-2,4(1H,3H)-dione dihydrochloride] | 8.6 | 
O=c1[nH]c2c(sc3ccccc32)c(=O)n1CCN1C[C@@H]2CCc3c(O)cccc3[C@@H]2C1 (relative stereo) [Example 20, 3-2-(cis-6-Hydroxy-2,3,3a,4,5,9b-hexahydro-[1H]-benz[e]isoindol-1-yl)ethyl]-[1]benzothieno[3,2-d]pyrimidine-2,4(1H,3H) -dione hydrobromide] | 7.43 | 
COc1cccc2c1CC[C@H]1CN(CCn3c(=O)[nH]c4c(sc5cc(C(F)(F)F)ccc54)c3=O)C[C@@H]21 [Example 32, 3-[2-((3aR,9bR)-cis76-Methoxy-2,3,3a,4,5,9b-hexahydro-[1-benz[e]isoindol-1-yl)ethyl]-7-trifluoromethyl[1]benzothieno[23-d]pyrimidine-2,4(1H,3H)-dione hydrochloride] | 7.46 | 
O=c1[nH]c2c(sc3ncccc32)c(=O)n1CCN1C[C@@H]2CCc3c(ccc4c3OCO4)[C@@H]2C1 (relative stereo) [Example 111, hydrochloride] | 8.00 | 
COc1cccc2c1CC[C@H]1CN(CCn3c(=O)[nH]c4c(sc5ncncc54)c3=O)C[C@@H]21 [Example 40, 3-[2-(cis-(3aR,9bR)-6-Methoxy-2,3,3a,4,5,9b-hexahydro-[1H]-benz[e]isoindol-1-yl)ethyl]-thieno[2,3-d:4,5]dipyrimidine-2,4(1H,3H)-dione] | 9.72 | 
COc1cccc2c1[C@@H]1CN(CCn3c(=O)[nH]c4c([nH]c5ccccc54)c3=O)C[C@@H]1CC2 [Example 24, hydrochloride] | 8.6 | 
COc1cccc2c1CC[C@H]1CN(CCn3c(=O)[nH]c4c(sc5cccc(C)c54)c3=O)C[C@@H]21 [Example 35, 3-2-((3aR,9bR)-cis-6-Methoxy-2,3,3a,4,5,9b-hexahydro-[1H]-benz[e]isoindol-1-yl)ethyl]-9-methyl[1]benzothieno[3,2-d]pyrimidine-2,4(1H,3H)-dione hydrochloride] |  | 8.74
COc1cccc2c1CC[C@H]1CN(CCn3c(=O)[nH]c4c(oc5cccnc54)c3=O)C[C@@H]21 [Example 77, 3-[2-((3aR,9bR)-cis-6-Methoxy-2,3,3a,4,5,9b-hexahydro-[1H]-benz[e]yl)ethyl]-pyrido[2',3':4,5]furo[3,2-d]pyrimidine-2,4(1H3 H)-dione hydrochloride] | 9.09 | 
COc1cccc2c1CC[C@H]1CN(CCn3c(=O)[nH]c4c(ccc5cnccc54)c3=O)C[C@@H]21 [Example 84, hydrochloride] | 8.99 | 
COc1cccc2c1CC[C@H]1CN(CCn3c(=O)[nH]c4c(sc5cccc(C#N)c54)c3=O)C[C@@H]21 [Example 54, 3-2-((3aR,9bR)-cis-6-Methoxy-2,3,3a,4,5,9b-hexahydro-[1H]-benz[e]isoindol-1-yl)ethyl]-[1]-9-cyano-benzothieno[3,2-d]pyrimidine-2,4(1H,3H)-dione hydrochloride] | 8.74 | 
COc1cccc2c1CC[C@H]1CN(CCn3c(=O)c4sc5cccnc5c4n(C)c3=O)C[C@@H]21 [Example 61, dihydrochloride] | 9.5 | 
COc1cccc2c1CC[C@H]1CN(CCn3c(=O)[nH]c4c(sc5c(C#N)cccc54)c3=O)C[C@@H]21 [Example 55, 3-[2-((3aR,9bR)-cis-6-Methoxy-2,3,3a,4,5,9b-hexahydro-[1H]-benz[e]isoindol-1-yl)ethyl]-[1]-6-cyano-benzothieno[3,2-d]pyrimidine-2,4(1H,3H)-dione hydrochloride] | 8.11 | 
COc1cccc2c1CC[C@H]1CN(CCn3c(=O)[nH]c4c(sc5ccncc54)c3=O)C[C@@H]21 [Example 38, 3-[2-((3aR,9bR)-cis-6-Methoxy-2,3,3a,4,5,9b-hexahydro-[1H]-benz[e]isoindol-1-yl)ethyl]1-pyrido[3',4':4,5]thieno[3,2-d]pyrimidine-2,4(1H,3H)-dione dihydrochloride] | 9.75 | 
COc1cccc2c1CC[C@H]1CN(CCn3c(=O)[nH]c4c(sc5ccc(C)cc54)c3=O)C[C@@H]21 [Example 74, 3-[2,((3aR,9bR)-cis-6-Methoxy-2,3,3a,4,5,9b-hexahydro-[1H]-benz[e]isoindol-1-yl)ethyl]-[1]-8-methyl-benzothieno[3,2-d]pyrimidine-2,4(1H,3H)-dione hydrochloride] | 8.7 | 
COc1cccc2c1CC[C@H]1CN(CCn3c(=O)[nH]c4c5c(sc4c3=O)CCCC5)C[C@@H]21 (relative stereo) [Example 22, hydrochloride] | 8.32 | 
COc1cccc2c1CC[C@H]1CN(CCn3c(=O)[nH]c4c(sc5ncc(-c6ccccc6)nc54)c3=O)C[C@@H]21 [Example 99, hydrochloride] | 7.92 | 
COc1cccc2c1CC[C@H]1CN(CCn3c(=O)[nH]c4cc5ccccc5cc4c3=O)C[C@@H]21 (relative stereo) [Example 21, 3-[2-(cis-6-Methoxy-2,3,3a,4,5,9b-hexahydro-[1H]-benz[e]isoindol-1-yl)ethyl]-benzo[g]quinazoline-2,4(1H,3H):dione hydrochloride] | 7.43 | 
COc1cccc2c1CC[C@H]1CN(CCn3c(=O)c4sc5nccnc5c4n(Cc4ccccc4)c3=O)C[C@@H]21 [Example 96, hydrochloride] | 7.46 | 
COc1cccc2c1CC[C@H]1CN(CCn3c(=O)[nH]c4c(ccc5cccnc54)c3=O)C[C@@H]21 [Example 83, hydrochloride] | 8.43 | 
COC(=O)c1ccc2sc3c(=O)n(CCN4C[C@@H]5CCc6c(OC)cccc6[C@@H]5C4)c(=O)[nH]c3c2c1 [Example 44, 3-[2-((3aR,9bR)-cis-6-Methoxy-2,3,3a,4,5,9b-hexahydro-[1H]-benz[e]isoindol-1-yl)ethyl]-[1]-8-carbomethoxy-benzothieno[3,2-d]pyrimidine-2,4(1H,3H)-dione hydrochloride] | 8.09 | 
COc1cccc2c1CC[C@H]1CN(CCn3c(-c4ccccc4)nc4c(sc5ccccc54)c3=O)C[C@@H]21 (relative stereo) [Example 30, 3-[2-(cis-6-Methoxy-2 3 3a,4,5,9b-hexahydro-[1H]-benz[e]isoindol-1-yl)ethyl]-2-phenyl-[1]benzothieno[3,2-d]-4(1H,3H)-one hydrochloride] | 7.06 | 
COc1cccc2c1CC[C@H]1CN(CCn3c(=O)[nH]c4cc5[nH]cnc5cc4c3=O)C[C@@H]21 [Example 53, 7-[2-((3aR,9bR)cis-6-Methoxy-2,3,3a,4,5,9b-hexahydro,[1H]-benz[e]isoindol-1-yl)ethyl]-imidazo[4,5-g]quinazoline-6,8(1H,5H)-dione hydrochloride] | 9.25 | 
COc1cccc2c1CC[C@H]1CN(CCn3c(=O)[nH]c4sc5c(c4c3=O)CCCC5)C[C@@H]21 (relative stereo) [Example 7, 3-[2-(cis-6-Methoxy-2,3,3a4,5,9b-hexahydro-[1H]-benz[e]isoindol-1-yl)ethyl]-[1]-5,6,7,8-tetrahydrobenzothieno[2,3-d]pyrimidine-2,4(1H,3H)-dione hydrochloride] | 7.85 | 
COc1cccc2c1CC[C@H]1CN(CCn3c(=O)[nH]c4c(sc5nc(-c6ccccc6)c(-c6ccccc6)nc54)c3=O)C[C@@H]21 [Example 100, 3-[2-(cis-(3aR,9bR)-6-Methoxy-2,3,3a,4,5,9b-hexahydro-[1H]-benz[e]isoindol-1-yl)ethyl]-7,8-diphenylpyrazino[2',3':4,5]thieno[3,2-d]pyrimidine-2,4(1H,3H)-dione hydrochloride] | 6.92 | 
COCCn1c(=O)n(CCN2C[C@@H]3CCc4c(OC)cccc4[C@@H]3C2)c(=O)c2sc3cccnc3c21 [Example 105, hydrochloride] | 8.58 | 
COc1cccc2c1[C@H]1CN(CCn3c(=O)[nH]c4c(sc5ccccc54)c3=O)C[C@H]1CC2 [Example 19, hydrochloride] | 6.66 | 
COc1cccc2c1[C@@H]1CN(CCn3c(=O)[nH]c4c(sc5ccccc54)c3=O)C[C@H]1CC2 (relative stereo) [Example 2, 3-[2-(trans-9-Methoxy-2,3,3a4,5,9b-hexahydro-[1H]-benz[e]isoindol-1-yl)ethyl]-[1]benzothieno[3,2-d]pyrimidine-2,4(1H,3H)-dione hydrochloride] | 7.81 | 
